Results reported in ChEMBL document CHEMBL1201862, “PubChem BioAssay data set” (2004).
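Tested at 5 concentrations; 48 h exposure; 96-well plates; endpoints linearly interpolated, else capped at highest concentration. GI50 is the concentration that inhibits growth by half.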 Activity calls are given as the source filed them. Rule as the data show it: active = GI50 up to about 1.1 µM and inactive = higher.

What was measured:
Assay in all cases: growth of human tumour cells (NCI), 48 h
[1] = tested on: CAKI-1
[2] = tested on: HOP-92
[3] = tested on: PC-3
[4] = tested on: SK-MEL-28
[5] = tested on: MOLT-4
[6] = tested on: SR
[7] = tested on: OVCAR-5
[8] = tested on: NCI-H23
[9] = tested on: UACC-62
[10] = tested on: SNB-75
[11] = tested on: LOX IMVI
[12] = tested on: Hs-578T
[13] = tested on: NCI-H460
[14] = tested on: SF-539
[15] = tested on: UO-31
[16] = tested on: TK-10
[17] = tested on: Malme-3M
[18] = tested on: SNB-19
[19] = tested on: HCC 2998
[20] = tested on: DU-145

Measured: GI50

c1cncc(CNCCN2CCNCC2)c1
inactive: [1] > 100 µM | [2] > 100 µM | [3] > 100 µM | [4] > 100 µM | [5] > 100 µM | [6] > 100 µM | [7] > 100 µM | [8] > 100 µM | [9] > 100 µM | [10] > 100 µM | [11] > 100 µM | [12] > 100 µM | [13] > 100 µM | [14] > 100 µM | [15] > 100 µM | [16] > 100 µM | [17] > 100 µM | [18] > 100 µM

O[C@@]12Cc3c([nH]c4ccccc34)[C@@H]3Oc4c(-c5ccccc5)ccc5c4[C@@]31CCN(CC1CC1)[C@@H]2C5
inactive: [1] 2.97 µM | [2] 5.19 µM | [3] 1.84 µM | [4] 1.71 µM | [5] 3.07 µM | [6] 2.79 µM | [7] 4.11 µM | [19] 1.57 µM | [8] 1.78 µM | [9] 1.8 µM | [11] 1.89 µM | [12] 1.85 µM | [13] 1.72 µM | [15] 1.74 µM | [17] 1.9 µM | [18] 1.88 µM

COC1=CC(=O)C(O)=C(CC2(C)C(C)CCC3(C)C2CCCC3(C)C)C1=O (stereo not given)
inactive: [1] 3.34 µM | [2] 2.38 µM | [4] 4.43 µM | [5] 2.4 µM | [6] 3.11 µM | [7] 10.3 µM | [19] 3.6 µM | [8] 2.84 µM | [9] 2.04 µM | [10] 3.89 µM | [11] 4.6 µM | [13] 1.88 µM | [14] 2.84 µM | [15] 4.49 µM | [16] 4.97 µM | [17] 4.03 µM | [18] 3.58 µM

O=c1c2c(c1=O)C1(SCCCS1)c1cc(Cl)ccc1O2
inactive: [1] > 100 µM | [2] > 100 µM | [3] > 100 µM | [4] > 100 µM | [5] > 100 µM | [7] > 100 µM | [20] > 100 µM | [19] > 100 µM | [8] > 100 µM | [9] > 100 µM | [10] > 100 µM | [11] > 100 µM | [13] > 100 µM | [14] > 100 µM | [15] > 100 µM | [16] > 100 µM | [17] > 100 µM | [18] > 100 µM

O=C(COC(=O)c1cccc2c(=O)c3ccccc3[nH]c12)Nc1ccc(S(=O)(=O)Nc2ncccn2)cc1
inactive: [1] 79.3 µM | [2] 15.6 µM | [4] 32.9 µM | [5] 28.4 µM | [6] 29 µM | [7] 39.3 µM | [19] 38.8 µM | [8] 37.5 µM | [9] 20 µM | [10] 30 µM | [11] 35.7 µM | [13] > 100 µM | [14] 20.5 µM | [15] > 100 µM | [16] 39.4 µM | [17] 49.5 µM | [18] 38.8 µM

COC(=O)C1C2CC3C(OC(=O)C31)C2I (stereo not given)
inactive: [1] > 100 µM | [2] > 100 µM | [4] > 10 µM | [5] > 100 µM | [6] > 100 µM | [7] > 100 µM | [19] > 100 µM | [8] > 100 µM | [9] > 100 µM | [10] > 100 µM | [11] > 100 µM | [13] > 100 µM | [14] > 100 µM | [15] > 100 µM | [16] > 10 µM | [17] > 100 µM | [18] > 100 µM

CNc1ccc([S+]([O-])Nc2ccccc2)cc1 (stereo not given)
inactive: [4] > 100 µM | [5] 52.6 µM | [6] 38.2 µM | [7] > 100 µM | [20] > 100 µM | [19] 23.1 µM | [8] 55.7 µM | [9] 23.4 µM | [11] 41.9 µM | [12] 37.7 µM | [13] 55.8 µM | [14] > 100 µM | [15] 23.9 µM | [16] > 100 µM | [17] 53.2 µM | [18] > 100 µM

CCOC(=O)c1[nH]c2cccc3c2c1CC(Br)C3=O (stereo not given)
inactive: [1] 11.2 µM | [2] 16.7 µM | [3] 15.1 µM | [4] 20 µM | [5] 2.71 µM | [6] 2.14 µM | [7] 19 µM | [20] 16.1 µM | [19] 14.7 µM | [8] 17.6 µM | [11] 15.7 µM | [13] 22.3 µM | [14] 16.4 µM | [15] 6.21 µM | [16] 14.6 µM | [17] 14.5 µM | [18] 15.7 µM

O=C(c1ccccc1)n1c2ccc(Br)cc2c2nc3ccccc3nc21
inactive: [1] > 100 µM | [2] > 100 µM | [3] 43.2 µM | [4] > 100 µM | [5] 46.9 µM | [6] > 100 µM | [7] > 100 µM | [20] > 100 µM | [19] > 100 µM | [8] > 100 µM | [9] > 100 µM | [10] 46.2 µM | [11] > 100 µM | [13] 71 µM | [14] > 100 µM | [15] 45.8 µM | [16] > 100 µM | [17] > 100 µM | [18] > 100 µM

O=C(O)CNc1cc(-c2ccccc2)nc(NCC(=O)O)n1
inactive: [1] > 100 µM | [2] > 100 µM | [4] 49.5 µM | [5] > 100 µM | [6] > 100 µM | [7] > 100 µM | [19] > 100 µM | [8] > 100 µM | [9] > 100 µM | [10] > 100 µM | [11] > 100 µM | [13] > 100 µM | [14] > 100 µM | [15] > 100 µM | [16] > 100 µM | [17] > 100 µM | [18] > 100 µM

C=C(C(=O)OC)[C@@H]1C[C@@H](OC(C)=O)C2=C[C@H](C[C@@]3(C)O[C@@H]3C3=CC(C)=C(O3)[C@H]1OC(C)=O)OC2=O [BIPINNATIN I]
inactive: [1] 7.74 µM | [3] 25.2 µM | [4] 16.2 µM | [5] 2.16 µM | [6] 9.38 µM | [7] 17.9 µM | [20] 32.9 µM | [19] 20.4 µM | [8] 14.5 µM | [9] 18.4 µM | [10] 26.1 µM | [11] 16.3 µM | [13] 23.6 µM | [14] 31.4 µM | [15] 16 µM | [16] 16 µM | [17] 13.3 µM | [18] 47.6 µM
